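The compound was tested at five concentrations on cells cultured in 96-well plates, with a 48-hour exposure period. GI50 is the concentration that inhibits growth by half. TGI: concentration producing complete growth inhibition.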
Tests used:
Assay in all cases: growth of human tumour cells (NCI), 48 h
SR leukemia = test system: SR leukemia
OVCAR-5 ovarian = test system: OVCAR-5 ovarian
RXF 393 renal = test system: RXF 393 renal
SW-620 colon = test system: SW-620 colon
NCI-H460 lung = test system: NCI-H460 lung
COLO 205 colon = test system: COLO 205 colon
EKVX NSCLC = test system: EKVX NSCLC
SNB-75 CNS = test system: SNB-75 CNS
TK-10 renal = test system: TK-10 renal
NCI-H522 lung = test system: NCI-H522 lung

SMILES | GI50 (SR leukemia) | TGI (SR leukemia) | GI50 (OVCAR-5 ovarian) | TGI (OVCAR-5 ovarian) | GI50 (RXF 393 renal) | TGI (RXF 393 renal) | GI50 (SW-620 colon) | TGI (SW-620 colon) | GI50 (NCI-H460 lung) | TGI (NCI-H460 lung) | GI50 (COLO 205 colon) | TGI (COLO 205 colon) | GI50 (EKVX NSCLC) | TGI (EKVX NSCLC) | GI50 (SNB-75 CNS) | TGI (SNB-75 CNS) | GI50 (TK-10 renal) | TGI (TK-10 renal) | TGI (NCI-H522 lung) | GI50 (NCI-H522 lung)
O=C(O)c1ccc2c(c1)CCCC(c1ccc(Cl)cc1Cl)=C2c1ccc(O[C@H]2CCN(CCCF)C2)cc1 | 4.87 µM | 20.7 µM | 17.4 µM | 32.1 µM | 3.38 µM | 17 µM | 14.3 µM | 28.9 µM | 9.27 µM | 23.8 µM | 14.9 µM | 33.7 µM | 10.7 µM | 25.3 µM | 12.1 µM | 25.3 µM | 13.4 µM | 27.6 µM | – | –
C[C@]12CCCC(=O)C1(O)C[C@H](C(=O)O)CC2 (stereo partly drawn) | – | > 100 µM | – | > 100 µM | – | – | – | > 100 µM | – | > 100 µM | – | > 100 µM | – | – | – | > 100 µM | – | > 100 µM | > 100 µM | –
OCCNc1ncnc2c1ncn2Cc1cccc(COc2cccc(OCc3cccc(Cn4cnc5c(NCCO)ncnc54)c3)c2)c1 | – | – | 20.2 µM | 36.8 µM | – | – | 11.8 µM | 24.9 µM | 15.1 µM | 29 µM | 13.5 µM | 32.2 µM | 14.3 µM | 29 µM | 12.3 µM | 27.4 µM | 14.7 µM | 29.9 µM | 31.8 µM | 12.5 µM
Cc1cc(Cl)ccc1Nc1nc(C(F)(F)F)ccc1C(=O)N/N=C/c1ccc([N+](=O)[O-])cc1 | – | – | 2.99 µM | > 100 µM | 0.781 µM | 3.22 µM | 1.07 µM | – | 2.28 µM | 7.45 µM | 1.75 µM | 3.64 µM | 2.37 µM | > 29.7 µM | 1.71 µM | 10 µM | 1.95 µM | 8.32 µM | > 20.5 µM | 1.55 µM
Cn1c2c(c3ccc(Cl)c(Cl)c31)C(C#N)C1(CCNCC1)NC2=O (stereo not drawn) | – | – | 1.49 µM | 4.68 µM | 1.52 µM | 5.79 µM | 1.65 µM | 3.26 µM | 1.71 µM | 3.79 µM | 1.19 µM | 2.54 µM | 2.47 µM | 9.84 µM | 1.14 µM | 4.72 µM | 1.23 µM | 3.46 µM | 3.42 µM | 1.55 µM
CCOP(=O)(OCC)OC(C#N)c1ccc(-c2ccccc2)cc1 (stereo not drawn) | – | 59 µM | – | > 100 µM | – | – | – | 26.8 µM | – | 36.3 µM | – | 32.4 µM | – | > 100 µM | – | 64.6 µM | – | 89.2 µM | 28.5 µM | –
COc1ccc(-c2oc3c(OC)c(OC)c(OC)c(OC)c3c(=O)c2OC)cc1OC | – | 79.9 µM | – | > 100 µM | – | – | – | > 100 µM | – | 57 µM | – | > 100 µM | – | > 100 µM | – | – | – | > 100 µM | 49.4 µM | –
O=C1C(c2ccccc2)=[N+]([O-])c2ccccc21 | – | 23.5 µM | – | 43.1 µM | – | – | – | 22.3 µM | – | 32.7 µM | – | 29.7 µM | – | 35.4 µM | – | 37.5 µM | – | 37.4 µM | – | –
Cc1c(C(=O)NCCN2CCOCC2)cn2ncnc(Oc3ccc(NC(=O)Nc4ccc(Cl)c(C(F)(F)F)c4)cc3)c12 | 0.339 µM | 2.26 µM | – | – | 1.22 µM | 2.73 µM | – | – | 1.16 µM | 2.8 µM | – | – | – | – | – | – | – | – | 4.23 µM | 1.76 µM
CCN(CC)C(=S)SC | – | – | – | > 100 µM | – | > 100 µM | – | > 100 µM | – | > 100 µM | – | > 100 µM | – | > 100 µM | – | > 100 µM | – | > 100 µM | > 100 µM | –
COC(=O)[C@]12CCC(C)[C@H](C)[C@H]1C1=CCC3[C@@]4(C)CC[C@H](OC(C)=O)C(C)(C)C4CC[C@@]3(C)C1(C)C(O)C2 (stereo partly drawn) | – | > 100 µM | – | > 100 µM | – | – | – | > 100 µM | – | > 100 µM | – | > 100 µM | – | > 100 µM | – | > 100 µM | – | > 100 µM | > 100 µM | –
CCOC(=O)/C=C/C1=C(c2cccs2)c2ccccc2CC1 | – | – | 35.9 µM | > 100 µM | 19.5 µM | 41.3 µM | 31.1 µM | > 100 µM | 31.1 µM | > 100 µM | 17 µM | 46.3 µM | 27.8 µM | 86.7 µM | 25.5 µM | 82.5 µM | 17.9 µM | 64.3 µM | 63.6 µM | 24.3 µM
CCCCN(CCCC)c1c([N+](=O)[O-])c(=O)nc2ccccn12 | – | > 100 µM | – | > 100 µM | – | – | – | > 100 µM | – | 79.4 µM | – | > 100 µM | – | 94.1 µM | – | > 100 µM | – | 85 µM | 36.4 µM | –
O=C1NC(=S)S/C1=C(/C=C(\CC(=O)c1ccccc1)c1ccc(Cl)cc1)c1ccccc1 | 27 µM | 63.3 µM | 65.4 µM | > 100 µM | 23.4 µM | 82.1 µM | 42.9 µM | > 100 µM | 19.9 µM | 45.7 µM | 32.5 µM | > 100 µM | 33.6 µM | > 100 µM | – | – | 29.6 µM | > 100 µM | 44.9 µM | 17.9 µM
COc1ccc(/C=C\c2cc(OC)c(O[Si](C)(C)C(C)(C)C)c(OC)c2)cc1 | – | 56.2 µM | – | > 100 µM | – | – | – | > 100 µM | – | > 100 µM | – | > 100 µM | – | > 100 µM | – | > 100 µM | – | – | > 100 µM | –
COc1ccc2c(c1)/C(=C\c1c(Cl)[nH]c3ccc(OC)cc13)C(=O)N2 | – | – | 77.3 µM | > 100 µM | > 100 µM | > 100 µM | 20 µM | 48.9 µM | 50.7 µM | > 100 µM | 18.9 µM | 39.8 µM | 84.7 µM | > 100 µM | – | – | 44 µM | > 100 µM | 74.4 µM | 26.8 µM
CN(C)/N=C(/c1nc2ccc(Cl)cc2[nH]c1=O)C(O)c1ccc(C(O)/C(=N\N(C)C)c2nc3ccc(Cl)cc3[nH]c2=O)cc1 (stereo not drawn) | – | > 100 µM | – | > 100 µM | – | > 100 µM | – | > 100 µM | – | > 100 µM | – | > 100 µM | – | > 100 µM | – | – | – | > 100 µM | > 100 µM | –
O=C(c1ccncc1)n1nc(-c2ccccc2)c(N=Nc2ccccc2[N+](=O)[O-])c1-c1ccccc1 | – | > 100 µM | – | – | – | – | – | > 100 µM | – | – | – | > 100 µM | – | > 100 µM | – | > 100 µM | – | > 100 µM | > 100 µM | –

Source: PubChem BioAssay (NCI)
